3 molecules from US20260026522A1, “METHODS AND DEVICE FOR CO-TREATMENT OF CROP PROTECTION CHEMICALS WITH PLANT GROWTH REGULATORS” (AGROFRESH INC., priority 2016, published 2026) can be followed below.

For test [1], the system named is Penicillium expansum and Botrytis cinerea. As to the kind of experiment: Fungicide fogging of wounded, inoculated Golden Delicious apples: fungal lesion size. Format: in vivo. Particulars: 24 h fog at 20° C., measured Day 3 or 4. The source says:
Freshly harvested plants and crops, such as fruit crops (e.g. apple fruits), were wounded and inoculated with fungal pathogens. Immediately after harvest on Day 0, Golden Delicious apples were wounded on the left and/or the right sides of the fruit. The wounds were immediately inoculated with one or more fungal strains. For example, the wounds on the left side of the fruit were inoculated with Penicillium, while the wounds on the right side of the fruit were inoculated with Botrytis. After inoculation, the apples remained at 20° C. throughout the remainder of the experimental trial.
Inoculated fruits were separated in preparation for an experimental trial that comprised three replicates of 10-fruit cohorts each totaling 5.1 kg of Golden Delicious apples (see Table 1). After inoculation, the apples were held at 20° C. in a closed, controlled environment until fungicide treatment. Prior to fungicide treatment, a fruit cohort was removed from the controlled environment and transported to a sealed treatment chamber having a temperature of 20° C. The fruit cohorts were each treated with a single respective fungicide on Day 0 (i.e., day of harvest), as well as Days 1, 2, 3, and/or 4 after harvest (see Table 2).
More specifically, each fruit cohort was treated a single time for 24 hours with a specific fungicide solution comprising the following active ingredients: benzoxaborole (BOB), thiabendazole (TBZ), pyrimethanil (PYR), and fludioxonil (FDL) as described in Table 1 below. The fungicide solutions used to treat inoculated apples comprised the following concentration of active ingredients: a 100 g/L of benzoxaborole (BOB), thiabendazole (TBZ), and fludioxonil (FDL), or a 160 g/L of pyrimethanil (PYR), respectively (see Table 1).
Inoculated fruits were also treated with a propylene glycol-inoculated negative control (GLY IC). This propylene glycol-inoculated control treatment comprised only propylene glycol, a common fungicide treatment carrier, with no active ingredient (see Table 1). In addition, another cohort of inoculated fruits was not treated with a fungicide at all to produce an untreated inoculated control (UNTRT IC).
In this trial, replicate cohorts of Golden Delicious apples were treated by fogging with 167 μL of the benzoxaborole (BOB) solution, 270 μL of the thiabendazole (TBZ) solution, 410 μL of the pyrimethanil (PYR) solution, or 170 μL of the fludioxonil (FDL) solution, respectively (see Table 1). The fungicide fogging treatment was applied to the Golden Delicious apples in the sealed treatment chamber comprising a volume of 1.1 m^3 such that the final concentration of active ingredient (“ai”) of each fungicide applied to the Golden Delicious apples during the trial was 3.3 mg/kg of benzoxaborole (BOB), 8.0 mg/kg of thiabendazole (TBZ) solution, 8.5 mg/kg of pyrimethanil (PYR) solution, and 3.3 mg/kg of fludioxonil (FDL), respectively (see Table 1).
After 24 hours of fungicide treatment in the sealed chamber at 20° C., treated apples were returned back to the closed, controlled environment for storage. Storage of treated fruit occurred for at least 12 hours and for up to approximately 72 hours until Day 3 or Day 4 when fungal lesions on the treated fruit were measured (see Table 2). For example, inoculated fruit cohorts treated with fungicide on Day 0, where returned to the control chamber on Day 1 and stored there for at least 12 hours (e.g., approximately 48-72 hours) until their fungal lesions were measured on Days 3 or 4 (see Table 2). Inoculated fruit cohorts treated with fungicide on Day 1, where returned to the control chamber on Day 2 and stored there for at least 12 hours (e.g., approximately 24-48 hours) until their fungal lesions were measured on Days 3 or 4 (see Table 2). […]

Test [2] concerns Botrytis cinerea. Description: Fungicide fogging of wounded, inoculated Red Delicious apples: Botrytis lesion size. It counts as in vivo, Botrytis cinerea on Red Delicious apples. Particulars: measured Day 4. Here is the method:
(§1) This experiment was conducted exactly the same as described above in Example 1 unless noted otherwise. For example, instead of Golden Delicious apples, this experiment was performed on Red Delicious apples, which are harvested later in the season than Golden Delicious apples. Freshly harvested Red Delicious apples were wounded on the left and right side with Penicillium and Botrytis fungal pathogens, respectively. After inoculation, the apples remained at 20° C. throughout the remainder of the experimental trial to measure growth of the Botrytis fungal pathogen. Inoculated fruits were separated in preparation for an initial trial which comprised three replicates of 10-fruit cohorts totaling 5.5 kg of Red Delicious apples, respectively (see Table 1).
(§2) In this trial, replicate cohorts of Red Delicious apples were fog treated with 250 μL of the benzoxaborole (BOB) solution, 620 μL of the thiabendazole (TBZ) solution, 410 μL of the pyrimethanil (PYR) solution, or 250 μL of the fludioxonil (FDL) solution, respectively (see Table 1). The fungicide fogging treatment was applied to the Red Delicious apples in the sealed treatment chamber comprising a volume of 1.1 m^3 such that the final concentration of active ingredient (“ai”) of each fungicide applied to the Red Delicious apples during the trial was 4.6 mg/kg of benzoxaborole (BOB), 11.2 mg/kg of thiabendazole (TBZ) solution, 11.8 mg/kg of pyrimethanil (PYR) solution, and 4.6 mg/kg of fludioxonil (FDL), respectively (see Table 1).
(§3) After 24 hours of fungicide treatment in the sealed chamber at 20° C., treated apples were returned back to the closed, controlled environment for storage. As described in Example 1, storage of treated Red Delicious apples occurred for at least 12 hours and for up to approximately 72 hours until Day 4 when fungal lesions on the treated Red Delicious apples were measured (see Table 2).

For test [3], the system named is Penicillium expansum. As to the kind of experiment: Fungicide fogging of wounded, inoculated Red Delicious apples: Penicillium lesion size. It counts as in vivo, Penicillium expansum on Red Delicious apples. Particulars: for Fungal Lesion Diameter: Penicillium expansum, measured Day 4; for Inhibition of Penicillium expansum fungal growth compared to untreated and propylene glycol controls / Penicillium expansum lesion sizes, range over treatment days: treated on Days 0-3. Here is the method:
as §1, §2, §3
This experiment was conducted exactly the same as described above in Example 2 unless noted otherwise. In particular, freshly harvested Red Delicious apples were wounded on the left and right side with Penicillium and Botrytis fungal pathogens, respectively. After inoculation, the apples remained at 20° C. throughout the remainder of the experimental trial to measure growth of the Penicillium fungal pathogen.

Setting [4] is: Fungicide Fog Day 0, Penicillium and Botrytis lesions averaged.
Where [5] appears, read: Fungicide Fog Day 1, Penicillium and Botrytis lesions averaged.
Setting [6] is: Fungicide Fog Day 2, Penicillium and Botrytis lesions averaged.
Where [7] appears, read: Fungicide Fog Day 0, 24 h fog at 20° C.
[8] abbreviates: Fungicide Fog Day 1, 24 h fog at 20° C.
[9] abbreviates: Fungicide Fog Day 2, 24 h fog at 20° C.
[10] abbreviates: Fungicide Fog Day 3, 24 h fog at 20° C.

`c1ccc2[nH]c(-c3cscn3)nc2c1` [TBZ, 4-(1H-1,3-Benzodiazol-2-yl)-1,3-thiazole]: the “Fungal Lesion Diameter” value stood at 2.0 mm in test [1] (setting [4]); 4.5 mm in test [1] (setting [5]); 4.9 mm in test [1] (setting [6]); 10.9 mm in test [2] (setting [7]); 12.1 mm in test [2] (setting [8]); 12.7 mm in test [2] (setting [9]). In addition, the “Fungal Lesion Diameter” value in test [2] (setting [10]) came to 12.4 mm; in test [3] (setting [7]), 18.0 mm; in test [3] (setting [8]), 18.4 mm; in test [3] (setting [9]), 17.6 mm; in test [3] (setting [10]), 18.3 mm. For the same molecule, the “Inhibition of Penicillium expansum fungal growth compared to untreated and propylene glycol controls” value in test [3] was “Neither treatments comprising pyrimethanil (PYR) nor thiabendazole (TBZ) showed a consistent increase in inhibition of Penicillium expansum fungal growth or any significant difference”. The “Penicillium expansum lesion sizes, range over treatment days” value in test [3] is recorded as 17.6-18.4 mm.

As to `Cc1cc(C)nc(Nc2ccccc2)n1` [PYR, 4,6-Dimethyl-N-phenylpyrimidin-2-amine], the “Fungal Lesion Diameter” value in test [1] (setting [4]) is on record as 0.4 mm; in test [1] (setting [5]) it was 1.3 mm; in test [1] (setting [6]), 3.6 mm; in test [2] (setting [7]) it was 9.2 mm; in test [2] (setting [8]) it was 10.4 mm; in test [2] (setting [9]), 12.4 mm. Further, the “Fungal Lesion Diameter” value in test [2] (setting [10]) was 12.5 mm; in test [3] (setting [7]) it was 17.2 mm; in test [3] (setting [8]), 17.1 mm; in test [3] (setting [9]), 18.3 mm; in test [3] (setting [10]), 18.3 mm. Further, the “Inhibition of Penicillium expansum fungal growth compared to untreated and propylene glycol controls” value in test [3] is “Neither treatments comprising pyrimethanil (PYR) nor thiabendazole (TBZ) showed a consistent increase in inhibition of Penicillium expansum fungal growth or any significant difference”. For the same molecule, the “Penicillium expansum lesion sizes, range over treatment days” value in test [3] is listed as 17.1-18.3 mm.

Turning to `N#CC1=CN=CC1c1cccc2c1OC(F)(F)O2` (stereo not shown) [FDL, 4-(2,2-difluoro-1,3-benzodioxol-4-yl)-1H-pyrrole-3-carbonitrile], the “Fungal Lesion Diameter” value in test [1] (setting [4]) was 1.6 mm; in test [1] (setting [5]), 2.7 mm; in test [1] (setting [6]) it was 3.0 mm; in test [2] (setting [7]) it was 4.1 mm; in test [2] (setting [8]), 7.0 mm; in test [2] (setting [9]) it was 8.2 mm. Moreover, the “Fungal Lesion Diameter” value in test [2] (setting [10]) was found to be 11.7 mm; in test [3] (setting [7]), 11.0 mm; in test [3] (setting [8]), 13.2 mm; in test [3] (setting [9]) it was 13.4 mm; in test [3] (setting [10]), 15.5 mm.
